Patent US20250195598A1, “FLAVONOID ACTIVE FRACTION OF AN ABELMOSCHI COROLLA, PREPARATION METHOD AND APPLICATION THEREOF” (SUZHONG PHARMACEUTICAL GROUP CO., LTD., priority 2022, published 2025)

How the values were obtained:
[1] = compared with the control group; cited from earlier work
Brown-Norway rats = experiment: ocular blood flow and choroidal neovascularization after krypton laser photocoagulation; format: in vivo; conditions: intragastric, after 4 weeks; Verteporfin 1.35 mg/kg, Embodiment 2-1 69.9 mg/kg, other samples 87.36 mg/kg
Description: Experimental animals: rats, 150 g to 180 g weight, SPF grade, half male and half female.
(§1) Administration mode: intragastric administration.
Experimental modeling: healthy male Brown-Norway rats were selected and anesthetized by intramuscular injection of ketamine (50 mg/kg), pupils of the rats were dilated with a mixed mydriatic of 0.5% tropicamide and neofolin, and 8 points were photocoagulated between great retinal vessels around an optic disc at a distance 2 to 4 disc diameters away from the optic disc under a 120D special front lens by a krypton yellow laser (Lumenis Company in the United States) (wavelength 568 nm, and parameters: spot diameter […], exposure time 0.1 second, and power 150 mW to 200 mW). […]
(§2) Drug groups and administration dosages: there were a normal group, a model group, a positive control drug group (Verteporfin 1.35 mg/kg), a sample group of Embodiment 2-1 (69.9 mg/kg), a sample group of Embodiment 3.1 (87.36 mg/kg), a sample group of Embodiment 7 (87.36 mg/kg), a sample group of Embodiment 9.1 (87.36 mg/kg) and a sample group of Embodiment 9.2 (87.36 mg/kg, solids prepared according to Embodiment 9.2), with 15 rats in each group. After 4 weeks of administration, an inhibition rate of choroidal blood flow and an area of choroidal neovascularization of eyes were detected.

[2] = compounds having five hydroxyl groups; cited from earlier work
SD rats = experiment: contrast-induced kidney injury; format: in vivo; conditions: intragastric, 4 weeks; Irbesartan 50 mg/kg/d, samples 69.9 or 87.36 mg/kg (groups of b143 differ from the table)
Description: Experimental animals: SD rats, 200 g to 250 g weight, SPF grade, half male and half female.
as §1
Experimental modeling: healthy male SD rats were selected, intramuscularly injected with furosemide (10 ml/kg) first, and then injected with a prostaglandin synthesis inhibitor (indomethacin, 10 mg/kg, dissolved in dimethyl sulfoxide, and diluted with 1.25% of NAHCO3 solution), a nitric oxide synthase inhibitor (N-nitro-L-arginine-methyl ester hydrochloride, L-NAME, 10 mg/kg, dissolved in 0.9% of NaCl solution) and 76% of meglumine diatrizoate by tail vein every 15 minutes.
In animal models, the increase of serum creatinine exceeding the baseline by 50% was often used as the diagnostic criterion of acute kidney injury, that was, the success criterion of modeling.
as §2, with “(Irbesartan 50 mg/kg/d),” for “(Verteporfin 1.35 mg/kg),”, “mg/kg, the” for “mg/kg,”, “After 4 weeks of administration, an inhibition rate of choroidal blood flow and an area of choroidal neovascularization of eyes were detected.” left out

Kunming mice = experiment: bleomycin-induced idiopathic pulmonary fibrosis; format: in vivo; conditions: HE staining, four grades, 28 days; Rosiglitazone 5 mg/kg, samples 70 mg/kg, Huangkui Capsule 180 mg/kg based on the extract
Description: Experimental animals: 60 Kunming mice, half male and half female, 18 g to 22 g weight, clean grade.
Animal groups: the mice were randomly divided into 6 groups, which comprise a normal group, a model group, a drug control group (5 mg/kg of Rosiglitazone), a sample group prepared by the method of Embodiment 2-A3 (70 mg/kg), a sample group prepared by the method of Embodiment 9.2 (70 mg/kg) and a Huangkui Capsule sample group (180 mg/kg based on the extract), with 10 mice in each group.
Experimental modeling: after 3 days of adaptive feeding, the experimental mice were anesthetized by intraperitoneal injection with 4% chloral hydrate (0.01 ml/g). Taking a supine fixed position, routine disinfection was carried out, a median cervical incision was made, and a trachea was exposed by passive separation. The model group, the control group and the treatment group were slowly injected with bleomycin (5 mg/kg) into a space between tracheal cartilaginous rings, and the normal control group was injected with the same volume of normal saline. The mice were immediately rotated upright for 3 minutes to 5 minutes after the injection, so that the liquid medicine was evenly distributed in both lungs, then skin of the mice was sutured and disinfected at a suture, and the mice after waking were sent to a clean grade observation room for feeding. […]

MRL/lpr mice = experiment: lupus erythematosus nephritis; format: in vivo; conditions: Dexamethasone 1 mg/kg, Embodiment 2-B 69.9 mg/kg, other samples 87.36 mg/kg
From the text: 26 male MRL/lpr mice (lupus erythematosus nephritis mice) were selected as an observation group 1, with 18 g to 22 g weight and 13 weeks old, which were purchased from Nanjing Junke Bioengineering Co., Ltd., and 24 male C57BL/6 mice were selected as a normal group, with 18 g to 22 g weight and 13 weeks old, which were purchased from Wuhan Hualianke Biotechnology Co., Ltd.
The mice were administrated for 4 weeks.
After administration, 24-hour urine was collected to detect urine protein. After the urine was collected, eyeballs of all the mice were taken for blood collection, and the collected blood was centrifuged to obtain serum for antinuclear antibody detection. Meanwhile, kidneys of the mice were taken out, quickly frozen in liquid nitrogen, and stored in a refrigerator at −80° C. for kidney immune detection.

[3] = tested on: diabetic kidney disease model, C57BL/6 mice; experiment: streptozotocin (STZ)+high-fat-fed diabetic kidney disease model; format: in vivo; conditions: samples 62.4 mg/kg, Dapagliflozin tablet 45.5 mg/kg
Description: Administration method: intragastric administration. Experimental modeling: after 3 days of adaptive feeding, the experimental mice were fed with high-fat and high-sugar feed (made by laboratory according to a formula of lard:sucrose:yolk:basic feed=18:20:3:59) for 8 consecutive weeks, and then intraperitoneally injected with an STZ sodium citrate solution according to a dosage of 100 mg/kg for 7 consecutive days. […] When the blood glucose was greater than 13.8 mmol/L, and there were urine protein and renal function abnormality, the modeling was successful. Experimental groups: there were a total of 6 groups, comprising a normal group, a model group, a positive drug group (Dapagliflozin tablet, 45.5 mg/kg), a sample group prepared by the method of Embodiment 2-1 (62.4 mg/kg), a sample group prepared by the method of Embodiment 6 (62.4 mg/kg) and a sample group prepared by the method of Embodiment 8 (62.4 mg/kg), with 15 mice in each group. After 4 weeks of administration, urine protein and urine creatinine were detected, and a daily food intake and a mouse state were calculated.

db/db mice = db/db mice diabetic kidney disease model; format: in vivo; conditions: samples 62.4 mg/kg, Dapagliflozin tablet 45.5 mg/kg
Description: Animal model: db/db mice, 16 weeks old, and C57 BL/6 mice, 16 weeks old. Administration mode: intragastric administration. Experimental modeling: the db/db mice were raised for 17 weeks, and then urine protein was detected. When there were urine protein and renal function abnormality, the modeling was successful for later experiment. Experimental groups: there were a normal group of the C57 BL/6 mice, a model group of the db/db mice, a positive drug group (Dapagliflozin tablet, 45.5 mg/kg), a sample group prepared by the method of Embodiment 3-1 (62.4 mg/kg), a sample group prepared by the method of Embodiment 9.1 (62.4 mg/kg), and a sample group prepared by the method of Embodiment 2-A3 (62.4 mg/kg). There were 6 groups in total, with 15 mice in each group. After 4 weeks of administration, urine protein, urine creatinine and a daily food intake were detected, and a mouse state was observed.

**Q.** For `OC[C@H]1O[C@@H](c2ccc(F)c(Cc3cc4ccccc4s3)c2)[C@H](O)[C@@H](O)[C@@H]1O` [Ipragliflozin], which “serum uric acid level” value [1] is on record?
**A.** significantly reduces

**Q.** For `Cc1ccc([C@@H]2O[C@H](CO)[C@@H](O)[C@H](O)[C@H]2O)cc1Cc1ccc(-c2ccc(F)cc2)s1` [Canagliflozin], which “serum uric acid level” value [1] is on record?
**A.** significantly reduces

**Q.** What does the source list for Verteporfin?
**A.** Area of choroidal angiogenesis/μm^2 (Brown-Norway rats): 19.80 ± 1.23^# μm^2; Ocular choroidal blood flow inhibition ratio (Brown-Norway rats): 87.98 ± 11.23

**Q.** For `OC[C@H]1O[C@@H](c2ccc(Cl)c(Cc3ccc(O[C@H]4CCOC4)cc3)c2)[C@H](O)[C@@H](O)[C@@H]1O` [Empagliflozin], which “serum uric acid level” value [1] is on record?
**A.** significantly reduces

**Q.** Which “effect on ocular blood flow” value [2] does the source give for `O=c1c(O)c(-c2ccc(O)c(O)c2)oc2cc(O)cc(O)c12` [quercetin] here?
**A.** negative effect

**Q.** For `CCc1ccc(Cc2ccc3c(c2)[C@]2(OC3)O[C@H](CO)[C@@H](O)[C@H](O)[C@H]2O)cc1` [Tofogliflozin], which “serum uric acid level” value [1] is on record?
**A.** significantly reduces

**Q.** With `CCCCC1=NC2(CCCC2)C(=O)N1Cc1ccc(-c2ccccc2-c2nnn[nH]2)cc1` [Irbesartan] as the compound, how does the Serum creatinine (SD rats) read?
**A.** 16.67 ± 1.23

**Q.** And the Serum urea nitrogen (SD rats)?
**A.** 3.01 ± 0.98

**Q.** For `CCOc1ccc(Cc2cc([C@@H]3S[C@H](CO)[C@@H](O)[C@H](O)[C@H]3O)c(OC)cc2C)cc1` [Luseogliflozin], which “serum uric acid level” value [1] is on record?
**A.** significantly reduces

**Q.** For `CN(CCOc1ccc(CC2SC(=O)NC2=O)cc1)c1ccccn1` (stereo not drawn) [Rosiglitazone], which “Degree of pulmonary alveolitis” value (Kunming mice) is on record?
**A.** 1.03 ± 0.49

**Q.** And the “Degree of pulmonary fibrosis” value (Kunming mice)?
**A.** 1.15 ± 0.81

**Q.** Which Urine protein (MRL/lpr mice; 24-hour urine after 4 weeks) does the source give for `C[C@@H]1C[C@H]2[C@@H]3CCC4=CC(=O)C=C[C@]4(C)[C@@]3(F)[C@@H](O)C[C@]2(C)[C@@]1(O)C(=O)CO` [Dexamethasone] here?
**A.** 11.67 ± 3.45

**Q.** What about the “C3 level of kidney” value (MRL/lpr mice; kidney tissue after 4 weeks) of the same compound?
**A.** 1.21 ± 0.67

**Q.** What about the “IgG level of kidney” value (MRL/lpr mice; kidney tissue after 4 weeks) of the same compound?
**A.** 1.32 ± 0.67

**Q.** What about the “Logarithm of antinuclear antibody titers” value (MRL/lpr mice; serum after 4 weeks) of the same compound?
**A.** 0.81 ± 0.11

**Q.** Which results are given for `CCOc1ccc(Cc2cc([C@@H]3O[C@H](CO)[C@@H](O)[C@H](O)[C@H]3O)ccc2Cl)cc1` [Dapagliflozin tablet, Dapagliflozin]?
**A.** Urine albumin-to-creatinine ratio ([3]; intragastric, after 4 weeks of administration): 1.04 ± 1.09; Urine protein/mg ([3]; intragastric, after 4 weeks of administration, 15 mice per group): 17.51 ± 12.34 mg; Abdominal distension/number of mice ([3]; of 15 mice per group, 4 weeks): 0 number of mice; Diarrhea/number of mice ([3]; of 15 mice per group, 4 weeks): 0 number of mice; Urine albumin-to-creatinine ratio/ (db/db mice; intragastric, after 4 weeks): 1.17 ± 1.26; Urine protein/mg (db/db mice; intragastric, after 4 weeks): 15.09 ± 10.27 mg; Abdominal distension/number of mice (db/db mice; of 15 mice per group, 4 weeks): 0 number of mice; Diarrhea/number of mice (db/db mice; of 15 mice per group, 4 weeks): 0 number of mice
